Read-outs that look alike come from different tables or passages of the source.
Experiments:
[1] = plasma stability, mouse plasma; format: in vitro ADME
From the text: Plasma stability is a measure of the stability of small molecules and peptides in plasma and is an important parameter, which can strongly influence the in vivo efficacy of a test compound. Drug candidates are exposed to enzymatic processes (proteinases. esterases) in plasma, and they can undergo intramolecular rearrangement or bind irreversibly (covalently) to proteins.

[2] = serum alanine transaminase / aspartate transaminase (liver function) in treated mice; format: in vivo, mouse; details: treated mice vs vehicle
Procedure: Serum alanine transaminase or aspartate transaminase levels from mice treated with Compound D1 (ML400) or vehicle (mice shown in FIG. 10) were assessed using EnzyChrom Assay Kits from BioAssay Systems.

[3] = molecular target: LMPTP-A (Low Molecular Weight Protein Tyrosine Phosphatase-A) enzyme (Homo sapiens (Human), UniProt P24666); test: LMPTP primary screening / LMPTP (OMFP) enzyme inhibition assay, fluorescence intensity; format: biochemical
Outline: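 Single-concentration screen, test compounds 20 μM final, […]. Enzyme (0.625 nM) and OMFP (400 μM) react 50 min at room temp, dark, in Bis-Tris buffer pH 6.0 containing DTT 1 mM and Triton X-100 0.01%. Read-out: fluorescence intensity.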

[4] = molecular target: LYP-1 (lymphoid phosphatase, LYP) (Homo sapiens (Human), UniProt Q9Y2R2); test: LYP-1 phosphatase selectivity dose response assay; format: biochemical
From the text: (§1) Disclosed herein is a collection of small-molecule inhibitors of the low molecular weight protein tyrosine phosphatase (LMPTP). The assays utilized in the primary and secondary screening were designed to identify allosteric inhibitors of LMPTP. […] The structure of the compounds was further optimized to generate a series of inhibitors of LMPTP-A isoform, with high selectivity over the LMPTP-B isoform, LYP and VHR, and with cellular activity. In an aspect is provided a compound having the formula: […]
(§2) LYP-1 and VHR-1 dose response assays to assess selectivity of Compound D1 against these non-homologous phosphatases.

[5] = molecular target: VHR-1 (VH1-related phosphatase, VHR) (Homo sapiens (Human), UniProt P51452); test: VHR-1 phosphatase selectivity dose response assay; format: biochemical
From the text: as §1, §2

[6] = rodent pharmacokinetics in male C57BL/6 mice (IV, PO, IP); format: in vivo, mouse
Procedure: The inventors also examined ML400 (also described herein as MLS-0472870 or Compound D1) for its rodent pharmacokinetics. The probe Compound D1 was profiled in Male C57BL/6 Mice, with n=3 for each group studied (IV, IP and PO arms). The formulation used was 1.00 mg/mL in DMSO:Tween80:Water=5:5:90, which gave a clear solution. […] Enterohepatic circulation was also observed for this compound. This compound has acceptable parameters for future in vivo studies (see Table 4 and FIG. 13).

[7] = tested on: 3T3-L1 cells; test: insulin-based mouse 3T3-L1 adipogenesis assay (AdipoRed); format: cell-based; details: 10 μM compound
Procedure: The probe Compound D1 was also profiled in an insulin-based mouse 3T3-L1 adipogenesis assay. In this assay, 3T3-L1 pre-adipocytes are grown to 2-days post-confluence in DMEM with 10% bovine calf serum, and then induced to differentiate to adipocytes following stimulation for 2 days with an induction cocktail containing 1 μg/ml insulin, 1 μM dexamethasone, and 0.5 mM 3-isobutyl-1-methylxanthine in DMEM containing 10% fetal bovine serum (FBS).^44 2 days later, the media is replaced with DMEM with 10% FBS and 1 μg/ml insulin, and after 2 additional days, the media is replaced with DMEM with 10% FBS for 2 additional days, at which point adipogenesis is measured using the AdipoRed Adipogenesis Assay Reagent from Lonza, according to the manufacturer's instructions. In brief, the assay reagent is added to the wells containing cells, where it partitions into the fat droplets of differentiated adipocytes, and emits fluorescence at 572 nm that can be detected with a plate-reader. To test the effect of probe Compound D1, cells were plated into 48-well plates and allowed to grow to confluence. Cells were then treated with 10 μM Compound D1 or 0.025% DMSO, and after 2 days induced to differentiate in the presence of 10 μM Compound D1 or 0.025% DMSO. Fresh compound or DMSO was added during each media replacement.

[8] = tested on: obese C57BL/6 mice on HFD; test: IPGTT glucose tolerance in high-fat diet obese mice; format: in vivo, mouse; details: 30 mg/kg IP daily, 4 weeks, 2 g glucose/kg
Procedure: Male C57BL/6 mice were maintained on HFD containing 60 kcal % fat for 3 months, followed by daily IP administration of 30 mg/kg Compound D1 or vehicle. After 4 weeks, IPGTT were performed using 2 g glucose/kg body weight. Mean±SEM is shown. *, p<0.05, Two-way ANOVA.

[9] = male, C57BL/6, mouse, in vivo, iv, […]
[10] = mouse, in vivo, male C57BL/6 mice, IP, 9.69 mg/kg
[11] = mouse, in vivo, male C57BL/6 mice, PO, 29.6 mg/kg

Chain of LMPTP-A (Low Molecular Weight Protein Tyrosine Phosphatase-A) enzyme (P24666 whole entry): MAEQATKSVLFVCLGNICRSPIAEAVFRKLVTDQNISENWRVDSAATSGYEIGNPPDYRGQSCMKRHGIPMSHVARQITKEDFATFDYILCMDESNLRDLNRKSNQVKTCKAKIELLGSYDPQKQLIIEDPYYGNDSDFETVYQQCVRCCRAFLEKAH
Chain of LYP-1 (lymphoid phosphatase, LYP) (Q9Y2R2 whole entry, species assumed, canonical isoform): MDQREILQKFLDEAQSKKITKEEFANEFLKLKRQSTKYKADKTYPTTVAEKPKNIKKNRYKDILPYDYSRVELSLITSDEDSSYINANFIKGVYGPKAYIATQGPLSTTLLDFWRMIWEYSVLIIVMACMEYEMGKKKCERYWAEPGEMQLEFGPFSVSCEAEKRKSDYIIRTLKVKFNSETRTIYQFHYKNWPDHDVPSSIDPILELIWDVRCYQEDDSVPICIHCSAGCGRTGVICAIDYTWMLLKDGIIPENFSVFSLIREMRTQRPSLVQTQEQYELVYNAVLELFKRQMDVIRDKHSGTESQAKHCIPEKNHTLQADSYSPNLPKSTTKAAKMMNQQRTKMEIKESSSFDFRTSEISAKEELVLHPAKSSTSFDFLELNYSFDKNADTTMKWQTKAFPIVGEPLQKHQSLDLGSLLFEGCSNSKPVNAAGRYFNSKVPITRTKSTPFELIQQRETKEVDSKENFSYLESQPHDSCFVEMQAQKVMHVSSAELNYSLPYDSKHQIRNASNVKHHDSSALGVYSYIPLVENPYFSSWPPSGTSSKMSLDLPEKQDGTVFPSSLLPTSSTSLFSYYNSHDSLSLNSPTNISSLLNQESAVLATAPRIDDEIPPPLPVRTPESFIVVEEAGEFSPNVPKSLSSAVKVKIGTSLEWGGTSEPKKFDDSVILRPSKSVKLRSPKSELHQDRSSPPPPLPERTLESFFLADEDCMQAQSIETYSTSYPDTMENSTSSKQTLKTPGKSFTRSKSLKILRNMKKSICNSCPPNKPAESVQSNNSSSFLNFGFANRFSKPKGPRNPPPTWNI
Chain of VHR-1 (VH1-related phosphatase, VHR) (P51452 whole entry): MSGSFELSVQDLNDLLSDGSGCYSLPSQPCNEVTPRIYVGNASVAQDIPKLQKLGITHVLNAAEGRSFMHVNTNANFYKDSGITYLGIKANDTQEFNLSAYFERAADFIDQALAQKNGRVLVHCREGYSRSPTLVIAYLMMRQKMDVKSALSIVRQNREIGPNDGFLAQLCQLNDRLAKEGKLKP

COc1ccc(-c2cc(NCCCN3CCCCC3)c3ccccc3n2)cc1 [Compound D1, 2-(4-methoxyphenyl)-N-(3-(piperidin-1-yl)propyl)quinolin-4-amine]
Plasma Stability % Remaining @ 3 hrs ([1]; Mouse plasma, 3 hrs): 68.97%
plasma stability ([1]; mouse plasma): good stability
liver function (serum alanine transaminase or aspartate transaminase) [2]: does not Affect Liver Function
IC50 ([3]; LMPTP-A, OMFP substrate, method of Example 2, read-out: IC50): 0.801 to 5 µM
IC50 ([3]; Table 2 quinoline series, S sample (synthesized de novo), read-out: LMPTP (OMFP) (IC50)): 1.68 µM
IC50 ([3]; Table 5, n = 4, AID686962, AID743307, read-out: LMPTP IC50): 1.68 ± 0.15 µM
Fold-Selective ([4]; LMPTP over LYP-1): >60-fold
IC50 ([4]; n = 2, AID743309, read-out: Anti-target LYP-1 IC50): > 80 µM
Fold-Selective ([5]; LMPTP over VHR-1): >60-fold
IC50 ([5]; n = 2, AID743310, read-out: Anti-target VHR-1 IC50): > 80 µM
enterohepatic circulation ([6]; male C57BL/6 mice): observed
Cl (mL/min/kg) ([6]; male C57BL/6 mice, IV, […]): Low clearance
Vdss (L/kg) ([6]; male C57BL/6 mice, IV, […]): large volume of distribution
clearance [6, 9]: 25.8 mL/min/kg
half-life [6, 9]: 39.6 h
Vd ([6]; male, C57BL/6, mouse, in vivo, iv, […], read-out: Vdss): 83.1 L/kg
AUC(0-inf) [6, 10]: 4520 ng·h/mL
Cmax [6, 10]: 365 ng/mL
Tmax [6, 10]: 0.33 h
half-life [6, 10]: 32.5 h
AUC(0-inf) [6, 11]: 6380 ng·h/mL
Cmax [6, 11]: 3210 ng/mL
Tmax [6, 11]: 3.33 h
half-life [6, 11]: 29.2 h
3T3-L1 adipogenesis [7]: completely abolished
glucose tolerance (IPGTT) [8]: Improves Glucose Tolerance
